For the assay, the target named is T1, rat mGluR1a receptor (Rattus norvegicus, UniProt P23385).
T1 construct: expressed in transfected cells; host or cells: Chinese Hamster Ovary cells (CHO-1a), stably transfected
The assay can be described thus: mGluR1 assay: antagonism of glutamate-evoked calcium internalisation in CHO-1a cells (FLIPr). It counts as cell-based. To be noted: CHO cells stably transfected with rat mGluR1a; 40 μM glutamate challenge; IC50 values converted to modified Ki values; read-out: binding affinities (mGluR1 assay). The method, then:
The ability of compounds of formula (I) to antagonise glutamate-evoked increases in calcium internalisation in an mGluR1 expressing cell line may be measured using the assay described below.
Chinese Hamster Ovary cells stably-transfected with the rat mGluR1a receptor (CHO-1a) were used in the assay. CHO-1a cells were seeded onto shallow 96 well plates and assayed at a confluency of 80-90%. Cells were loaded with Fluo-3-AM dye (8.8 μM final concentration; excitation 488 nm, emission 530 nm) in the presence of probenecid (2.5 mM), for 45-90 minutes at 37° C., after which time excess dye was removed by washing. The cell plate was then loaded onto a fluorometric imaging plate reader (FLIPr, Molecular Devices). Baseline readings were measured for 30 seconds. Test compounds were added by the FLIPr and allowed to equilibrate for 5 minutes before the addition of a 40 μM glutamate challenge (this was the approximate ED90 for glutamate against the receptor expressed in these cells). Readings were taken for a further 2 minutes. Measurements were made of the area of peak obtained in response to the glutamate addition and inhibition curves were constructed. Glutamate dose-response curves were included on each experimental day to allow IC50 values to be converted to modified Ki values.

T1 sequence (P23385 19-1199): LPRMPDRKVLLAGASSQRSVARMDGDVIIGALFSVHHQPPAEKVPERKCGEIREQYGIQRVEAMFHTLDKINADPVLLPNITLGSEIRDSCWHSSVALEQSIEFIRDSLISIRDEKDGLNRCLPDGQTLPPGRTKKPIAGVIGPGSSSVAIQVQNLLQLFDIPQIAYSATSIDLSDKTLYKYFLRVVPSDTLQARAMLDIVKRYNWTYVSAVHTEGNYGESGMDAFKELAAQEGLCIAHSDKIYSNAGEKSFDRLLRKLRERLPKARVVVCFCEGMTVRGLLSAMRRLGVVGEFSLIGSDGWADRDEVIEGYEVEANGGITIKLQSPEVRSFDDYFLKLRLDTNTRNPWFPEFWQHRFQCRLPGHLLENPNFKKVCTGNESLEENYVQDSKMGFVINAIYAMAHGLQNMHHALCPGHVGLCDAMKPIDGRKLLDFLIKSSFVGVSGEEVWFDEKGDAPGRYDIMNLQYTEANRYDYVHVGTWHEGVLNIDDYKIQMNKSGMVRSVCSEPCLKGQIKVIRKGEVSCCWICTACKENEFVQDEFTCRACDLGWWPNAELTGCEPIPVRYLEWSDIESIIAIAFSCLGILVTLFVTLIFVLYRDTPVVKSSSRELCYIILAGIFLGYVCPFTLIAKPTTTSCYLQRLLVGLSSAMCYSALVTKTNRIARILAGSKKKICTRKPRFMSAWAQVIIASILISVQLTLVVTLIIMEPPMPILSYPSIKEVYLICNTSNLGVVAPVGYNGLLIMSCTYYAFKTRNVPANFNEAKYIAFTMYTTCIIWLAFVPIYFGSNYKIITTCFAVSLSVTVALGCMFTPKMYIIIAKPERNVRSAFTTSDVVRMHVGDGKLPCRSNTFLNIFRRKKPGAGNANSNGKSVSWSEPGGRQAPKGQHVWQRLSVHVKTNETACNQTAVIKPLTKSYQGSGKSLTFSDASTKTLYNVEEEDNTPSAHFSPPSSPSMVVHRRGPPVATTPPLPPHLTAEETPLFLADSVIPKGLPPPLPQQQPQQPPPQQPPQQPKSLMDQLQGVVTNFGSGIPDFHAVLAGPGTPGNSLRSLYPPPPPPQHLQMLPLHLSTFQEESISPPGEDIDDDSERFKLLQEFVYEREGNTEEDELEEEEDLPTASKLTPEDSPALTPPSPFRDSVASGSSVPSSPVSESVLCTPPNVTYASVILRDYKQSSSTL

As to `OC1CCN(c2cc3c(NC4CCCCCC4)ncnc3cn2)CC1` [Example 1, 1-(4-Cycloheptylamino-pyrido[3,4-d]pyrimidin-6-yl)-piperidin-4-ol], the Ki worked out at 3 nM.

Regarding `OCCCNc1cc2c(NC3CCCCCC3)ncnc2cn1` [Example 3], the Ki turned out to be 2 nM.

The record behind these values is US20050038047A1, “Azaquinazoline derivatives” (priority 2003, published 2005).
